# From patent US20230096528A1, “Pharmaceutical Composition for Treatment or Prevention of Multiple Inflammatory disorders” (priority 2019, published 2023)
# Key:
# [1] = system: DSS-induced colitis in mice; experiment: Dextran sulfate sodium (DSS)-induced colitis in mice (Example 3); type: in vivo
# Text: This example provides the results of an in vivo study in a dextran sulfate sodium (DSS)-induced colitis in mice model. Inflammatory bowel diseases (IBD), mainly comprising ulcerative colitis and Crohn's Disease, are complex and multifactorial diseases with unknown etiology. To study human IBD mechanistically, a number of murine models of colitis have been developed. These models are tools to decipher underlying mechanisms of IBD pathogenesis as well as to evaluate potential therapeutics. […] Moreover, many existing IBD-approved drugs have been studied in this model to allow a comparison of new potential drug compounds as compared with existing drugs with approved IBD indications. […] mice were divided into 5 groups of 3-10 mice, provided with standard mouse chow diet ad libitum, and housed up to 5 per cage. Dexamethasone 21-phosphate disodium salt (DMS; Alfa Aesar Catalog #J64083-1G, Lot R02F035) (was used as a positive control. Hemoccult kits were obtained from Beckman (Hemoccult SENSA kit). Dextran sodium sulfate (DSS) reagent grade (MPI Catalog #160110, Lot #6046H, MW 36,000-50,000, CAS 9011-18-1) was supplemented in the water of certain groups to induced IBD-like symptoms. On day −3 treatment began prior to DSS delivery. On day 1 all mice were pre-weighed and given fresh 4-5% DSS in water every day for 5 days and water is then given for the remainder of the study to elicit disease. An additional control group was given water (no DSS) for the duration of the study (10 days). Body weight was measured daily, fecal blood status (hemoccult) was measured 3× per week, fecal consistency 3× per week and general health determined daily. Mice were sacrificed on day 10 and serum obtained for cytokine analysis and colon length and weight determined. There were two control groups of water only and DSS without drug treatment. There were two treatment groups at 69.3 mg/kg (n=10) bid and 23.1 mg/kg bid (n=10).
# [2] = system: biomarkers (chemokines, CSFs, interleukins, IFNs); experiment: Biomarkers compared across many studies (Table 2); type: in vivo; settings: PO 92.4 mg/kg DA BID
# Method: The many examples provided herein show the effect of the denatonium salts on various in vivo and in vitro models of various disease indications. In addition, blood samples were taken from the tested (and control) animals and various biomarkers were measured and compared. FIGS. 70A-C show graphs comparing biomarkers across many studies. […] It should be noted that clusters of multiple biomarkers predict effectiveness for each disease indication and that grouping is shown in FIG. 71.
# [3] = system: microbial populations in a nonalcoholic steatohepatitis (NASH) mouse model; experiment: Microbiome study in NASH mouse model on AMLN diet (Example 4); type: in vivo, C57BL/6 mice
# Text: There were changes in the microbiome in a mice model using a high-fat diet after 4 weeks of treatment with and without administering DA orally. The high fat diet itself induced extensive changes in the microbial populations in all groups. Importantly though, there was a pronounced difference between the DA treatment group and the control group at week 4.
# Classifications of the different organisms that changed in the control and treatment groups at 4 weeks and observed extensive changes in the primary or dominant phylum groups of bacteria, as well as on a family and genus level were made. […] The diversity at 4 weeks dropped over the study course in both control and treatment group due to dietary impact.
# The genetic potential of treatment-induced changes in relation to predicted physiological and metabolic pathways were aligned with observed benefits of treatment with DA with regards to attenuating inflammation and metabolic syndrome. The majority of the pathways being impacted were directly related to a decrease in inflammation and are known to be beneficial to cardiovascular health and other conditions related to the metabolic syndrome in humans. Observations included: • Increased metabolism of unsaturated fatty acids • Increased metabolism of arachidonic acid • Increased metabolism of cofactors and vitamins • Increased lysine degradation • Increased glycolysis and gluconeogenesis • Increased phosphatidylinositol signaling • Decreased arginine and ornithine metabolism Below Changes from Phylum à Family à Genus Level
# The effect of a small molecule oral TAS2R agonist (DA) was investigated on microbial populations in a nonalcoholic steatohepatitis (NASH) mouse model. Two groups of 4-week-old male C57BL/6 mice (20/group) were fed Amylin Liver NASH (AMLN) diet and received daily doses of ARD-101 (30 mg/mL in water) or vehicle (water) via intragastric gavage. DNA was isolated from fecal samples collected at week 0 and 4, and microbial ecology was evaluated using bTEFAP (bacterial tag-encoded FLX amplicon pyrosequencing). Operational taxonomic units were classified using BLAST against a curated NCBI database. Diversity within specific ecosystems and microbial community structures was analyzed with Qiime 2. Differences were determined by repeated measures ANOVA and post hoc pairwise comparisons using Tukey's test. Taxonomic classification data were evaluated with a dual hierarchal dendrogram.
# [4] = high-dose DA, no significant difference
# [5] = AMLN diet mice, daily gavage, week 4, DA vs vehicle
# [6] = treatment at 4 weeks versus baseline and control
structure (smiles),measurement,setting,value
"CC(=O)[O-].CC[N+](CC)(CC(=O)Nc1c(C)cccc1C)Cc1ccccc1 [DA, denatonium acetate]",Body weight at day 10,"[1]; 69.3 mg/kg BID, vs vehicle",significant effect against DSS-induced body weight loss
same,Combined fecal score during the study period,[1]; DA treatment,significant main effect
same,Fecal consistency score during the study period,[1]; DA treatment,significant main effect
same,Fecal occult blood scores during the study period,[1]; DA treatment,significant main effect
same,Colon length at day 10,[1]; [4],could counteract DSS-induced decrease
same,Colon weight at day 10,[1]; [4],could counteract DSS-induced decrease
same,Spleen weight at day 10,"[1]; high-dose DA, no significant effect",trend to counteract DSS-induced spleen weight loss
same,Eotaxin: Decreased Percentage Compared to Vehicle,[2],−18.6%
same,G-CSF: Decreased Percentage Compared to Vehicle,[2],−37.5%
same,GM-CSF: Decreased Percentage Compared to Vehicle,[2],−2.3%
same,IFN-γ: Decreased Percentage Compared to Vehicle,[2],−37.3%
same,IL-1α: Decreased Percentage Compared to Vehicle,[2],−18.2%
same,IL-1β: Decreased Percentage Compared to Vehicle,[2],−12.0%
same,IL-3: Decreased Percentage Compared to Vehicle,[2],−74.5%
same,IL-5: Decreased Percentage Compared to Vehicle,[2],−29.1%
same,IL-6: Decreased Percentage Compared to Vehicle,[2],−34.2%
same,IL-10: Decreased Percentage Compared to Vehicle,[2],−92.5%
same,IL-12 (p70): Decreased Percentage Compared to Vehicle,[2],−28.0%
same,IL-17: Decreased Percentage Compared to Vehicle,[2],−21.2%
same,KC: Decreased Percentage Compared to Vehicle,[2],−21.6%
same,LIX: Decreased Percentage Compared to Vehicle,[2],−7.3%
same,MCP-1: Decreased Percentage Compared to Vehicle,[2],−24.2%
same,MIG: Decreased Percentage Compared to Vehicle,[2],−13.2%
same,MIP-1α: Decreased Percentage Compared to Vehicle,[2],−3.4%
same,MIP-1β: Decreased Percentage Compared to Vehicle,[2],−10.2%
same,MIP-2: Decreased Percentage Compared to Vehicle,[2],−76.3%
same,RANTES: Decreased Percentage Compared to Vehicle,[2],−20.6%
same,Microbiome pathways for biosynthesis of unsaturated fatty acids,[3]; 4-week DA treatment,significant enrichment
same,Microbiome pathways for glycolysis and gluconeogenesis,[3]; 4-week DA treatment,significant enrichment
same,Microbiome pathways for lysine degradation,[3]; 4-week DA treatment,significant enrichment
same,Microbiome pathways for metabolism of arachidonic acid,[3]; 4-week DA treatment,significant enrichment
same,Microbiome pathways for metabolism of cofactors and vitamins,[3]; 4-week DA treatment,significant enrichment
same,Microbiome phosphatidylinositol signaling,[3]; 4-week DA treatment,significant enrichment
same,Microbiome signaling for arginine and ornithine metabolism,[3]; 4-week DA treatment,significantly decreased
same,SCFAs in feces,"[3]; AMLN diet mice, DA treatment",mitigated the diet-induced decrease
same,Proteobacteria (phylum) in fecal microbiome,"[3]; AMLN diet mice, daily gavage (30 mg/mL in water), week 4, DA vs vehicle",significant increases
same,Cyanobacteria (phylum) in fecal microbiome,[3]; [5],significant increases
same,Deferribacteres (phylum) in fecal microbiome,[3]; [5],significant decreases
same,Firmicutes (phylum) in fecal microbiome,[3]; [5],significant decreases
same,Spirochetes (phylum) in fecal microbiome,[3]; [5],significant decreases
same,Verrucomicrobia (phylum) in fecal microbiome,[3]; [5],significant increases
same,Diversity within ecosystems and microbial communities,"[3]; DA versus vehicle group at week 4, p<0.05",significantly less diversity
same,Barnesiella (genus) in microbiome,[3]; [6],Significantly Decreased
same,Brenneria (genus) in microbiome,[3]; [6],Significantly Increased
same,Candidatus soleaferrea (genus) in microbiome,[3]; [6],Significantly Decreased
same,Clostridium (genus) in microbiome,[3]; [6],Significantly Decreased
same,Dehalobacterium (genus) in microbiome,[3]; [6],Significantly Decreased
same,Dorea (genus) in microbiome,[3]; [6],Significantly Decreased
same,Erysipelatoclostridium (genus) in microbiome,[3]; [6],Significantly Increased
same,Escherichia (genus) in microbiome,[3]; [6],Significantly Increased
same,Flavonifractor (genus) in microbiome,[3]; [6],Significantly Decreased
same,Lachnoclostridium (genus) in microbiome,[3]; [6],Significantly Decreased
same,Oscillibacter (genus) in microbiome,[3]; [6],Significantly Decreased
same,Oscillospira (genus) in microbiome,[3]; [6],Significantly Decreased
same,Parabacteroides (genus) in microbiome,[3]; [6],Significantly Increased
same,Peptoclostridium (genus) in microbiome,[3]; [6],Significantly Increased
same,Shigella (genus) in microbiome,[3]; [6],Significantly Increased
same,Sutterella (genus) in microbiome,[3]; [6],Significantly Increased
same,Bacteroidetes (phylum) in microbiome,"[3]; week 4, not marked as significant",decreased
